These results are taken from patent publication US20110274657A1, “OXADIAZOLE DERIVATIVES AS S1P1 RECEPTOR ANTAGONISTS” (priority 2009, published 2011).

As a reminder, the EC50 is the concentration giving half of the maximal effect.

For this experiment, the target named is S1P1 receptors (Homo sapiens, UniProt P21453). The experiment can be described thus: 35S-GTPyS binding assay. The following applies: 35S-GTPyS binding to membranes, 90 min at room temperature; 10 μM S1P used as 100% maximum efficacy. The experiment is classed as biochemical. On the procedure: The effect of the compounds was measured using a 35S-GTPyS binding assay. Briefly, membranes were incubated in a buffer containing 20 mM HEPES pH 7.4, 100 mM NaCl, 10 mM MgCl2, 10 μM GDP, 50 μg/mL saponin and 0.2% fatty acid-free BSA at various concentrations (0.1 nM-10 μM) and 0.1 nM 35S-GTPyS. 10 μM S1P was used as 100% maximum efficacy. The assay was incubated for 90 min at room temperature with gentle mixing, and terminated by filtrating the reaction mixture through GF/C filter plates using the Manifold Filtration System. The filters were immediately washed with sodium phosphate pH 7.4 buffer. After drying the filter plates scintillant liquid were added to each well and 35S-GTPyS binding was measured on a Trilux Scintillation Counter.
Chain of S1P1 receptors (P21453 whole entry): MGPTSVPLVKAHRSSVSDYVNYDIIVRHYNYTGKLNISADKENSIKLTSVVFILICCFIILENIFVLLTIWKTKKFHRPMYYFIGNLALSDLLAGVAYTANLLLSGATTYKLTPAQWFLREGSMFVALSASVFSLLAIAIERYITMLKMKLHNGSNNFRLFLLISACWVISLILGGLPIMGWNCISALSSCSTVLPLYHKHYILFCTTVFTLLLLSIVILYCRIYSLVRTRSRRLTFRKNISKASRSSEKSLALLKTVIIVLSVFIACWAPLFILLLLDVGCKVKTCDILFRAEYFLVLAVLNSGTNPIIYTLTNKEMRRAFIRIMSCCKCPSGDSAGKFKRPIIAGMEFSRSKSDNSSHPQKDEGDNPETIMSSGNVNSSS
`Cc1cc(-c2noc(-c3cncc4c3CCC(C)(C)C4)n2)cc(C)c1CCN1CC(C(=O)O)C1` [Example 25, 1-(4-(5-(7,7-dimethyl-5,6,7,8-tetrahydroisoquinolin-4-yl)-1,2,4-oxadiazol-3-yl)-2,6-dimethylphenethyl)azetidine-3-carboxylic acid] came in with a concentration giving a half-maximal response (EC50) of 36.7 nM.
In turn, `Cc1cc(-c2noc(-c3cnc(C4CC4)c4c3CCC(C)(C)C4)n2)cc(C)c1CCC(=O)O` [Example 8, 3-(4-(5-(1-cyclopropyl-7,7-dimethyl-5,6,7,8-tetrahydroisoquinolin-4-yl)-1,2,4-oxadiazol-3-yl)-2,6-dimethylphenyl)propanoic acid] came in with a concentration giving a half-maximal response (EC50) of 28.5 nM.
Compound `CNc1ncc(-c2nc(-c3cc(C)c(OCCN)c(C)c3)no2)c2c1CC(C)(C)CC2` [Example 36, 4-{3-[4-(2-aminoethoxy)-3,5-dimethylphenyl]-1,2,4-oxadiazol-5-yl}-N,7,7-trimethyl-5,6,7,8-tetrahydroisoquinolin-1-amine] yielded an EC50 of 16.4 nM.
Regarding `Cc1cc(-c2noc(-c3cnc(N(C)C)c4c3CCC(C)(C)C4)n2)cc(C)c1CC(O)CO` (centres unmarked) [Example 37, 3-(4-{5-[1-(dimethylamino)-7,7-dimethyl-5,6,7,8-tetrahydroisoquinolin-4-yl]-1,2,4-oxadiazol-3-yl}-2,6-dimethylphenyl)propane-1,2-diol], a half-maximal response (EC50) required 21.7 nM.
Turning to `CCc1ncc(-c2nc(-c3cc(C)c(CCC(N)=O)c(C)c3)no2)c2c1CC(C)(C)CC2` [Example 6, 3-(4-(5-(1-ethyl-7,7-dimethyl-5,6,7,8-tetrahydroisoquinolin-4-yl)-1,2,4-oxadiazol-3-yl)-2,6-dimethylphenyl)propanamide], the EC50 was determined as 29 nM.
`CCc1ncc(-c2nc(-c3cc(C)c(CCN)c(C)c3)no2)c2c1CC(C)(C)CC2` [Example 7, 2-(4-(5-(1-ethyl-7,7-dimethyl-5,6,7,8-tetrahydroisoquinolin-4-yl)-1,2,4-oxadiazol-3-yl)-2,6-dimethylphenyl)ethanamine] registered an EC50 of 10.8 nM.
Compound `Cc1cc(-c2noc(-c3cncc4c3CCC(C)(C)C4)n2)cc(C)c1CC(O)CO` (centres unmarked) [Example 22, 3-(4-(5-(7,7-dimethyl-5,6,7,8-tetrahydroisoquinolin-4-yl)-1,2,4-oxadiazol-3-yl)-2,6-dimethylphenyl)propane-1,2-diol] had an EC50 of 19 nM.
Next, `Cc1cc(-c2noc(-c3cncc4c3CCC(C)(C)C4)n2)cc(C)c1CCNCC(F)F` [Example 24, N-(4-(5-(7,7-dimethyl-5,6,7,8-tetrahydroisoquinolin-4-yl)-1,2,4-oxadiazol-3-yl)-2,6-dimethylphenethyl)-2,2-difluoroethanamine]: 19.4 nM.
